Test: Assaying of tocopherol phosphate by HPLC in the concentrated aqueous solution (state of dissolution)
Format: physicochemical
Conditions: concentrated aqueous solution of Example 1 (3.5% PPG-6-Decyltetradeceth-20, 17.4% 1,2-pentanediol, 8.7% γ-TPNa added, water), UV 290 nm, ambient temperature
Description: Method for the Assaying of Tocopherol Phosphate by HPLC
The concentrated solution of γ-TPNa obtained in Example 1 and the compositions prepared in Examples 2 to 5 are assayed for tocopherol phosphate by HPLC according to the following conditions:
Elution gradient:—Eluent A: sodium acetate/acetic acid buffer pH 4.2 • Eluent B=methanol/THF (80/20)
Preparation of the Solutions
Diluent: Eluent A/eluent B (20/80 v/v)
Standard solution for the calibration=solution of γ-TPNa at 0.08 mg/ml of diluent.
Solution for the assaying of the concentrated solution (Ex. 1):
100 mg of the concentrated aqueous solution are withdrawn and diluted in 100 ml of diluent.

Cc1c(OP(=O)([O-])[O-])cc2c(c1C)OC(C)(CCCC(C)CCCC(C)CCCC(C)C)CC2.[Na+].[Na+] (stereo not shown) [γ-TPNa, Sodium salt of γ-tocopherol phosphate]
Result of the assaying of the γ-TPNa in the concentrated solution (dissolved amount): 8.7 % by weight
